Among the data in patent US8648066B2 (Exelixis, Inc., priority 2009, dated 2014) are IC50 values, retold here.

For this experiment, the target named is mTOR/GbL/Raptor (mTORC1) (Homo sapiens, UniProt P42345). The experiment is described as follows: mTOR/GbL/Raptor (mTORC1) ELISA assay. As to conditions: phosphorylation of 4E-BP1; 0.2 nM mTORC1, 10 μM ATP; read-out: IC50 in this assay (mTORC1 ELISA). The class given is biochemical. The essentials: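 Human mTORC1 (0.2 nM) phosphorylated 50 nM His-tagged 4E-BP1 with 10 µM ATP in HEPES pH 7.2 containing 10 mM MnCl2, 120 min at ambient temperature. Substrate was captured on Ni-chelate plates; phospho-4E-BP1 was detected by primary antibody and HRP secondary with luminescence.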

pIC50: −log10 of the molar value.

Take `COc1ccc2c(N3CCOc4ccc(-c5ccc6nc(C)[nH]c6c5)cc4C3)nc(C)nc2c1` [Example 258, 7-(2-methyl-1H-benzimidazol-6-yl)-4-[2-methyl-7-(methyloxy)quinoazolin-4-yl]-2,3,4,5-tetrahydro-1,4-benzoxazepine]: the pIC50 was 6.00 to 6.60.
With `COc1ccc2c(N3CCOc4ccc(-c5ccc6[nH]cnc6c5)cc4C3)nc(CN(C)C)nc2c1` [Example 658, 1-{4-[7-(1H-benzimidazol-5-yl)-2,3-dihydro-1,4-benzoxazepin-4(5H)-yl]-7-(methyloxy)quinazolin-2-yl}-N,N-dimethylmethanamine], the pIC50 was no more than 5.70.
In the case of `Cc1nc2ccc(-c3ccc4c(c3)CN(c3ncnc(C)c3Cc3cccc(C(F)(F)F)c3)CCO4)cc2[nH]1` [Example 92, 7-(2-methyl-1H-benzimidazol-6-yl)-4-(6-methyl-5-{[3-(trifluoromethyl)phenyl]methyl}pyrimidin-4-yl)-2,3,4,5-tetrahydro-1,4-benzoxazepine], the negative logarithm of the IC50 (pIC50) is 6.00 to 6.60.
Turning to `CC1(C)CCc2ncnc(N3CCOc4ccc(-c5cnc(N)c(S(=O)(=O)N6CCC(C)(N)C6)c5)cc4C3)c2C1` (stereo not shown) [Example 440, 3-[(3-amino-3-methylpyrrolidin-1-yl)sulfonyl]-5-[4-(6,6-dimethyl-5,6,7,8-tetrahydroquinazolin-4-yl)-2,3,4,5-tetrahydro-1,4-benzoxazepin-7-yl]pyridin-2-amine], the pIC50 is no less than 8.00.
For `c1ccc2c(N3CCOc4ccc(-c5ccc6[nH]ncc6c5)cc4C3)ccnc2c1` [Example 138, 7-(1H-indazol-5-yl)-4-quinolin-4-yl-2,3,4,5-tetrahydro-1,4-benzoxazepine], the pIC50 was no more than 5.70.
Take `CC1(C)CCc2ncnc(N3CCOc4ccc(-c5cnc(N)c(S(=O)(=O)NCC6CCCCN6)c5)cc4C3)c2C1` (stereo not shown) [Example 376, 2-amino-5-[4-(6,6-dimethyl-5,6,7,8-tetrahydroquinazolin-4-yl)-2,3,4,5-tetrahydro-1,4-benzoxazepin-7-yl]-N-(piperidin-2-ylmethyl)pyridine-3-sulfonamide]: the pIC50 is 7.30 to 8.00.
`CC1(C)CCc2ncnc(N3CCOc4ccc(-c5cnc(F)c(NS(C)(=O)=O)c5)cc4C3)c2C1` [Example 632, N-{5-[4-(6,6-dimethyl-5,6,7,8-tetrahydroquinazolin-4-yl)-2,3,4,5-tetrahydro-1,4-benzoxazepin-7-yl]-2-fluoropyridin-3-yl}methanesulfonamide]: the pIC50 is 6.00 to 6.60.
As to `CC1(C)CCc2ncnc(N3CCOc4ccc(-c5cnc(N)c(S(=O)(=O)NC(C)(C)CO)c5)cc4C3)c2C1` [Example 367, 2-amino-5-[4-(6,6-dimethyl-5,6,7,8-tetrahydroquinazolin-4-yl)-2,3,4,5-tetrahydro-1,4-benzoxazepin-7-yl]-N-(2-hydroxy-1,1-dimethylethyl)pyridine-3-sulfonamide], the pIC50 was 7.30 to 8.00.
For `Cc1nc2ccc(-c3ccc4c(c3)CN(c3ccnc(N)n3)CCO4)cc2[nH]1` [Example 96, 4-[7-(2-methyl-1H-benzimidazol-6-yl)-2,3-dihydro-1,4-benzoxazepin-4(5H)-yl]pyrimidin-2-amine], the pIC50 was 6.00 to 6.60.
The result for `CC1(C)CCc2ncnc(N3CCOc4ccc(-c5cnc(N)c(S(=O)(=O)NCC(O)CN)c5)cc4C3)c2C1` (stereo not shown) [Example 412, 2-amino-N-(3-amino-2-hydroxypropyl)-5-[4-(6,6-dimethyl-5,6,7,8-tetrahydroquinazolin-4-yl)-2,3,4,5-tetrahydro-1,4-benzoxazepin-7-yl]pyridine-3-sulfonamide] reads 7.30 to 8.00.
As to `Cc1nc2ncc(-c3ccc4c(c3)CN(c3ncnc5c3CCC(C)(c3ccccc3)C5)CCO4)cc2[nH]1` (stereo not shown) [Example 558, 7-(2-methyl-1H-imidazo[4,5-b]pyridin-6-yl)-4-(7-methyl-7-phenyl-5,6,7,8-tetrahydroquinazolin-4-yl)-2,3,4,5-tetrahydro-1,4-benzoxazepine], the pIC50 was no less than 8.00.
For `CC1(C)CCc2ncnc(N3CCOc4ccc(-c5cnc(N)c(S(=O)(=O)N6CCCC6)c5)cc4C3)c2C1` [Example 515, 5-[4-(6,6-dimethyl-5,6,7,8-tetrahydroquinazolin-4-yl)-2,3,4,5-tetrahydro-1,4-benzoxazepin-7-yl]-3-(pyrrolidin-1-ylsulfonyl)pyridin-2-amine], the pIC50 was 6.60 to 7.30.
For `CC(CO)NS(=O)(=O)c1cc(-c2ccc3c(c2)CN(c2ncnc4c2CC(C)(C)CC4)CCO3)cnc1N` (stereo not shown) [Example 368, 2-amino-5-[4-(6,6-dimethyl-5,6,7,8-tetrahydroquinazolin-4-yl)-2,3,4,5-tetrahydro-1,4-benzoxazepin-7-yl]-N-(2-hydroxy-1-methylethyl)pyridine-3-sulfonamide], the pIC50 is 7.30 to 8.00.
Turning to `Cc1nc2ccc(-c3ccc4c(c3)CN(c3ncnc(C)c3Cc3ccc(F)c(F)c3)CCO4)cc2[nH]1` [Example 89, 4-{5-[(3,4-difluorophenyl)methyl]-6-methylpyrimidin-4-yl}-7-(2-methyl-1H-benzimidazol-6-yl)-2,3,4,5-tetrahydro-1,4-benzoxazepine], the pIC50 was no less than 8.00.
With `CN(C)C(=O)c1cccc(-c2ccc3c(c2)CN(c2ccnc4ccccc24)CCO3)c1` [Example 134, N,N-dimethyl-3-(4-quinolin-4-yl-2,3,4,5-tetrahydro-1,4-benzoxazepin-7-yl)benzamide], the pIC50 was no more than 5.70.
For the compound `Cc1nc2c(c(N3CCOc4ccc(-c5cnc6sc(N)nc6c5)cc4C3)n1)CC(C)(C)CC2` [Example 669, 6-[4-(2,6,6-trimethyl-5,6,7,8-tetrahydroquinazolin-4-yl)-2,3,4,5-tetrahydro-1,4-benzoxazepin-7-yl][1,3]thiazolo[5,4-b]pyridin-2-amine], the pIC50 was no less than 8.00.
With `CC1(C)CCc2ncnc(N3CCOc4ccc(-c5cnc(N)c(S(=O)(=O)CCCO)c5)cc4C3)c2C1` [Example 430, 3-({2-amino-5-[4-(6,6-dimethyl-5,6,7,8-tetrahydroquinazolin-4-yl)-2,3,4,5-tetrahydro-1,4-benzoazepin-7-yl]pyridin-3-yl}sulfonyl)propan-1-ol], the pIC50 was 7.30 to 8.00.
With `Cc1nc2cc(-c3ccc4c(c3)CN(c3nc(C(C)N5CCCC5)nc5c3CC(C)(C)CC5)CCO4)cnc2[nH]1` (stereo not shown) [Example 496, 4-[6,6-dimethyl-2-(1-pyrrolidin-1-ylethyl)-5,6,7,8-tetrahydroquinazolin-4-yl]-7-(2-methyl-3H-imidazo[4,5-b]pyridin-6-yl)-2,3,4,5-tetrahydro-1,4-benzoxazepine], the pIC50 was 6.00 to 6.60.
In the case of `CNc1ncnc(N2CCOc3ccc(-c4cnc5nc(C)[nH]c5c4)cc3C2)c1C` [Example 610, N,5-dimethyl-6-[7-(2-methyl-1H-imidazo[4,5-b]pyridin-6-yl)-2,3-dihydro-1,4-benzoxazepin-4(5H)-yl]pyrimidin-4-amine], the pIC50 was 6.00 to 6.60.
For `Cc1nc2ccc(-c3ccc4c(c3)CN(c3ccnc(C)c3Cc3cccc(F)c3)CCO4)cc2[nH]1` [Example 103, 4-{3-[(3-fluorophenyl)methyl]-2-methylpyridin-4-yl}-7-(2-methyl-1H-benzimidazol-6-yl)-2,3,4,5-tetrahydro-1,4-benzoxazepine], the pIC50 is no less than 8.00.
For `CC1(C)CCc2ncnc(N3CCOc4ccc(-c5cnc(Cl)c(CS(C)(=O)=O)c5)cc4C3)c2C1` [Example 574, 7-{6-chloro-5-[(methylsulfonyl)methyl]pyridin-3-yl}-4-(6,6-dimethyl-5,6,7,8-tetrahydroquinazolin-4-yl)-2,3,4,5-tetrahydro-1,4-benzoxazepine], the pIC50 was 5.70 to 6.00.
As for `COc1ccc2c(N3CCOc4ccc(-c5ccc6[nH]c(=O)[nH]c6c5)cc4C3)nc(C)nc2c1` [Example 296, 5-{4-[2-methyl-7-(methyloxy)quinazolin-4-yl]-2,3,4,5-tetrahydro-1,4-benzoxazepin-7-yl}-1,3-dihydro-2H-benzimidazol-2-one], the pIC50 is no more than 5.70.
With `CCC(N)CNS(=O)(=O)c1cc(-c2ccc3c(c2)CN(c2ncnc4c2CC(C)(C)CC4)CCO3)cnc1N` (stereo not shown) [Example 408, 2-amino-N-(2-aminobutyl)-5-[4-(6,6-dimethyl-5,6,7,8-tetrahydroquinazolin-4-yl)-2,3,4,5-tetrahydro-1,4-benzoxazepin-7-yl]pyridine-3-sulfonamide], the pIC50 is 7.30 to 8.00.
As to `Cc1nc2c(c(N3CCOc4ccc(-c5cnc(N)c(S(=O)(=O)NCC6CCN(C)CC6)c5)cc4C3)n1)CC(C)(C)CC2` [Example 419, 2-amino-N-[(1-methylpiperidin-4-yl)methyl]-5-[4-(2,6,6-trimethyl-5,6,7,8-tetrahydroquinazolin-4-yl)-2,3,4,5-tetrahydro-1,4-benzoxazepin-7-yl]pyridine-3-sulfonamide], the pIC50 is 6.00 to 6.60.
The result for `Cc1nc2ccc(-c3ccc4c(c3)CN(c3ncnc(C)c3C)CCO4)cc2[nH]1` [Example 48, 4-(5,6-dimethylpyrimidin-4-yl)-7-(2-methyl-1H-benimidazol-6-yl)-2,3,4,5-tetrahydro-1,4-benzoxazepine] reads 5.70 to 6.00; that for `CC1(C)CCc2ncnc(N3CCOc4ccc(-c5cnc(N)c(S(=O)(=O)N6CC(O)C6)c5)cc4C3)c2C1` [Example 315, 1-({2-amino-5-[4-(6,6-dimethyl-5,6,7,8-tetrahydroquinazolin-4-yl)-2,3,4,5-tetrahydro-1,4-benzoxazepin-7-yl]pyridin-3-yl}sulfonyl)azetidin-3-ol], 7.30 to 8.00; that for `Cc1nc2ncc(-c3ccc4c(c3)CN(c3nc(CN(C)C)nc(C)c3CC3CC3)CCO4)cc2[nH]1` [Example 346, 1-{5-(cyclopropylmethyl)-4-methyl-6-[7-(2-methyl-1H-imidazo[4,5-b]pyridin-6-yl)-2,3-dihydro-1,4-benzoxazepin-4(5H)-yl]pyrimidin-2-yl}-N,N-dimethylmethanamine], 6.60 to 7.30.
Turning to `CCC1CCc2ncnc(N3CCOc4ccc(-c5cnc6nc(C)[nH]c6c5)cc4C3)c2C1` (stereo not shown) [Example 483, 4-(6-ethyl-5,6,7,8-tetrahydroquinazolin-4-yl)-7-(2-methyl-1H-imidaz[4,5-b]pyridin-6-yl)-2,3,4,5-tetrahydro-1,4-benzoxazepine], the pIC50 was no less than 8.00.
